The results in this text go back to PMC7251097, “Aspartate/asparagine-β-hydroxylase: a high-throughput mass spectrometric assay for discovery of small molecule inhibitors” (Scientific Reports, 2020).

Counter-ions that a name gives are not always drawn. Like-named read-outs stand apart in the source and are kept apart here.

The experiment has as its target T1, His6-AspH315–758 (human aspartate/asparagine-β-hydroxylase, AspH) (Homo sapiens, UniProt Q12797).
T1 construct: N-Terminally His6-tagged human AspH315–758 (His6-AspH315–758) was produced in E. coli BL21 (DE3) cells; made in house; host or cells: E. coli BL21 (DE3), pET-28a(+) vector
T1 sequence (Q12797 315-758): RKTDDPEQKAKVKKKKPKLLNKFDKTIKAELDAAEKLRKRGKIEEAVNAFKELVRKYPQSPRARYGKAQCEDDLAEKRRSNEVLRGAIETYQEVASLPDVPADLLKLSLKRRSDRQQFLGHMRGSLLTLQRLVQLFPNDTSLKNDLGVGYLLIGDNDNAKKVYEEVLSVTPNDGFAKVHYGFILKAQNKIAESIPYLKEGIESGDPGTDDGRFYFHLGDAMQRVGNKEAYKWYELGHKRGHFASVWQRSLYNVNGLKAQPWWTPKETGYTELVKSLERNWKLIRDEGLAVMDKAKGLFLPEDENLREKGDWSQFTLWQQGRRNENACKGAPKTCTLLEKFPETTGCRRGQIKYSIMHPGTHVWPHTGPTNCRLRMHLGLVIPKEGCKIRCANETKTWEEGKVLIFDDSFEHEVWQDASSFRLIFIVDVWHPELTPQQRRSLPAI
Description: SPE-MS AspH inhibition assay (LOPAC screen at fixed 20 μM and IC50 dose-response), hydroxylation of cyclic peptide hFX-CP101–119. The settings on record: for Plate 1 (% inhibition): plate 1, normalised to DMSO and 2,4-PDCA controls. The experiment is classed as biochemical.

Where [1] appears, read: LOPAC Plate 4, compound at 20 uM, substrate conversion.
Setting [2] is: LOPAC Plate 4, compound at 20 uM, read-out: % inhibition.
The mark [3] stands for this setting: LOPAC compound at fixed 20 uM, substrate conversion, plate 1.
Setting [4] is: LOPAC compound at 20uM, conversion of substrate peptide.
[5] abbreviates: LOPAC compound at 20uM, plate 2, normalised to DMSO and 2,4-PDCA controls.

By inhibition is commonly meant the change of the read-out against control, counted positive when it falls. As for `CCC(=O)c1ccc2c(c1)N(CCCN(C)C)c1ccccc1S2` [Propionylpromazine hydrochloride], under setting [1], the “% conversion” value is given as 44.67%. Moreover, under setting [2], the inhibition at 20 µM is -24%. `CC(C)c1cccc(C(C)C)c1O` [Propofol]: the “Plate 2 (% conversion)” value worked out at 38.08%. Under “read-out: Plate 2 (% inhibition)”, the inhibition at 20 µM is -6.34%. As to `C=CC1=C(C)c2cc3[nH]c(cc4nc(cc5[nH]c(cc1n2)c(C)c5CCC(=O)O)C(CCC(=O)O)=C4C)c(C)c3C=C` [Protoporphyrin IX disodium], the “% conversion” value under setting [1] turned out to be 20.78%. The inhibition at 20 µM under setting [2] was 46%. On the same counts, the results for `CNCCCC1c2ccccc2C=Cc2ccccc21` [Protriptyline hydrochloride] are 29.36% and 20.8%. In the case of `O=c1ccc2c(OCCCCc3ccccc3)c3ccoc3cc2o1` [Psora-4], the “Plate 1 (% inhibition)” value (LOPAC compound at fixed 20 uM) was 4.97%. Further, the “Plate 1 (% conversion)” value under setting [3] is on record as 34.20%. In the case of `NCCCCN` [Putrescine dihydrochloride], the “% conversion” value under setting [1] was 39.89%. In addition, the inhibition at 20 µM under setting [2] is -10%.

For the compound `NC(=O)c1cnccn1` [Pyrazinecarboxamide], under setting [1], the “% conversion” value worked out at 32.31%. On to `CN(C)C(=O)Oc1ccc[n+](C)c1` [Pyridostigmine bromide], for which the “% conversion” value amounted to 37.84%.

For `COc1ccc(CN(CCN(C)C)c2ccccn2)cc1` [Pyrilamine maleate], the “Plate 3 (% conversion)” value under setting [4] amounted to 36.13%. In the case of `Oc1ccccc1O` [Pyrocatechol], the “Plate 1 (% conversion)” value amounted to 10.12%. For the same compound, where the note is “LOPAC compound at fixed 20 uM”, the “Plate 1 (% inhibition)” value came to 76.68%. For `C[C@@H]1C(=O)NC2=Nc3cccc(Cl)c3CN21` [Quazinone], the “% conversion” value under setting [1] is 40.20%. Also, the inhibition at 20 µM under setting [2] was -10.9%. On the same counts, the results for `CCN(CC)CCCC(C)Nc1c2ccc(Cl)cc2nc2ccc(OC)cc12` (centres unmarked) [Quinacrine dihydrochloride] are 39.58% and -9.1%.

`CCCN1CCC[C@@H]2Cc3nc(N)ncc3C[C@H]21.Cl.Cl` [Quinelorane dihydrochloride]: the “% conversion” value under setting [1] was 33.91%. With `C=C[C@H]1C[N@@]2CC[C@H]1C[C@@H]2[C@@H](O)c1ccnc2ccc(OC)cc12` [Quinidine sulfate], the “% conversion” value under setting [1] was 33.25%. The same measure, in the same setting: the result for `C=C[C@H]1C[N@@]2CC[C@H]1C[C@H]2[C@H](O)c1ccnc2ccc(OC)cc12` [Quinine sulfate] reads 30.14%. Regarding `O=C(O)c1cccnc1C(=O)O` [Quinolinic acid], under setting [1], the “% conversion” value is listed as 7.93%. Moreover, under setting [2], the inhibition at 20 µM worked out at 83.6%.

For the compound `O=C(O)/C=C\C(=O)O.O=[N+]([O-])c1ccc2nc(N3CCNCC3)ccc2c1` [Quipazine, 6-nitro-, maleate], the “% conversion” value under setting [1] came out at 31.15%. By % inhibition is commonly meant the share of the control response that was lost under treatment. A high value points to a strong effect. For the compound `CCCN1CCC[C@H](c2cccc(O)c2)C1.Cl` [R(+)-3PPP hydrochloride], the “% inhibition” value (LOPAC Plate 4, compound at 20 uM) was determined as 3.51%. Under setting [1], the “% conversion” value is listed as 35.27%. In general, Inhibition refers to the relative decrease from the control value, in per cent. The low end stands for a response near the control, the high end for a response far below the control. Turning to `Br.C=CCN1CCc2c(cc(O)c(O)c2Br)[C@@H](c2ccccc2)C1` [R(+)-6-Bromo-APB hydrobromide, reference compound], the “Inhibition at 20 µM [%]” value (AspH activity, fixed compound concentration 20 μM, initial LOPAC screen, 0.5%v/v DMSO) came to 95.0%. Further, the “Plate 1 (% inhibition)” value (LOPAC compound at fixed 20 uM) was found to be 95.00%. Moreover, the “Plate 1 (% conversion)” value under setting [3] was determined as 3.97%. For the compound `C[C@@]1(C2CCCC2)Cc2cc(OCC(=O)O)c(Cl)c(Cl)c2C1=O` [R(+)-IAA-94], the “Plate 3 (% conversion)” value under setting [4] turned out to be 30.54%.

As to `CN1CCc2cc(Cl)c(O)cc2[C@@H](c2ccccc2)C1.Cl` [R(+)-SCH-23390 hydrochloride], the “Plate 2 (% inhibition)” value under setting [5] is -3.60%. Take `CC(C)NC[C@H](O)c1ccc(O)c(O)c1.O=C(O)C(O)C(O)C(=O)O` [R(-)-Isoproterenol (+)-bitartrate]: for the setting “LOPAC compound at 20uM, plate 2, conversion of substrate peptide”, the “Plate 2 (% conversion)” value is on record as 5.85%. Also, under setting [5], the “Plate 2 (% inhibition)” value is recorded as 89.92%.

For the compound `CCCN1CCc2cccc3c2[C@H]1Cc1ccc(O)c(O)c1-3.Cl` [R(-)-Propylnorapomorphine hydrochloride], the “Plate 2 (% conversion)” value was 7.83%. Moreover, the “Plate 2 (% inhibition)” value (20 µM) is reported as 84.00%.
